Measured values as given in patent US20250296953A1, “3,4-THIAZOLO-STEROIDS AND METHODS OF MAKING AND USING THE SAME” (Arkansas State University - Jonesboro, priority 2018, published 2025).

Key:
MALME-3M = assay: Melanoma cytotoxicity assay (resazurin); assay type: cell-based; details: human, 24 h
Protocol: On day 1, the cell line trypsinized and centrifuged to form cell pellet. The pellet was diluted in media, then counted using Countess automated cell counter. Approximately 4000 cells (198 uL) per well plated in […]. A control well of 200 uL growth media was also prepared. Wells closest to plate perimeter were filled with 200 uL PBS to prevent inner well evaporation. The 96 well plates are incubated in 37° C. incubator at 5% CO2 for 24 hours.
On day 2, compounds were added (in triplicate) along with DMSO/Dacarbazine controls (2 uL) added to bring wells to volume of 200 μL. The 96 well plates are incubated in 37° C. incubator at 5% CO2 for 24 hours.
On day 3, 40 μL of 0.15 mg/ml reszurin solution added to wells. Samples were placed in a 37° C. incubator at 5% CO2 for 6 hours. Excitation and emission for fluorescence measured at 544 nm and 590 nm using BMG Labtech Fluostar Optima plate reader
Percent viability determined by taking average of each triplicate well fluorescence and subtracting GM well reading to remove the background signal. This difference is then divided by the average of the negative control (DMSO) wells to determine percent viability.
IC50s were determined by using cereal dilution of compound to determine viability. Viabilities and concentration of cells are analyzed in Graphpad Prism by creating sigmoidal curve graph, which will determine the IC50 concentration.
We analyzed the ability of the thiazole-androstane derivatives to inhibit growth in various melanoma cell lines. The growth inhibition against melanoma cell lines of various compound is shown below in Tables 19 and 20. Inhibition results are reported as the IC50 concentration in μM of the indicated compound or as the percent viability […] of the indicated compound. NA=not available.

HFF-1 = assay: Cytotoxicity assay (resazurin); assay type: cell-based; details: Homo sapiens; HFF-1 cells; read-out: HFF-1 (IC50)
SK-MEL-25 = assay: Melanoma cytotoxicity assay (resazurin); assay type: cell-based; details: human, 24 h
Procedure, shortened: (§1)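 ~4000 cells/well, 24 h attach, 37° C/5% CO2; cpd triplicate, 24 h; resazurin 6 h; fluor 544/590 nm. % viability vs DMSO after media-blank subtraction; IC50 from dilution series, sigmoidal fit.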

LOX IMVI = assay: Melanoma cytotoxicity assay (resazurin); assay type: cell-based; details: Homo sapiens; LOX IMVI melanoma cells
Procedure, shortened: as §1

SK-MEL-28 = assay: Melanoma cytotoxicity assay (resazurin); assay type: cell-based; details: human, 24 h
Procedure, shortened: as §1

SK-MEL-5 = assay: Melanoma cytotoxicity assay (resazurin); assay type: cell-based; details: human, 24 h
Procedure, shortened: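 ~4000 cells/well seeded 24 h, then compound added in triplicate for 24 h at 37° C, 5% CO2. Resazurin added for 6 h; fluorescence at 544/590 nm, background-subtracted and normalised to DMSO wells as % viability; IC50 from sigmoidal fit of serial dilutions.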

NCI-H522 (NSCLC) = assay: NCI 60 one dose screen; assay type: cell-based, human; details: Non-small Cell Lung Cancer
SF-295 = assay: NCI 60 one dose screen; assay type: cell-based, human
SF-539 = assay: NCI 60 one dose screen; assay type: cell-based, human
HCT-15 (Colon Cancer) = assay: NCI 60 one dose screen; assay type: cell-based, human
[1] = system: 60 different human tumor cell lines; assay: NCI Development Therapeutics Program 60 cell line screen, one dose; assay type: cell-based

Question: C[C@]12CC[C@H]3[C@@H](CC=C4c5sc(Nc6ccccn6)nc5CC[C@@]43C)[C@@H]1CC[C@@H]2O [IIIa.24, (1S,2R,13R,14S,17S,18S)-2,18-dimethyl-7-(2-pyridylamino)-8-thia-6-azapentacyclo[11.7.0.02,10.05,9.014,18]icosa-5(9),6,10-trien-17-ol] was tested. Which “MALME-3M (% viability)” value (MALME-3M) did it give?
Answer: 10.69%

Question: What about the IC50 (HFF-1) of the same compound?
Answer: > 20 µM

Question: What about the “SK-MEL-25 (% viability)” value (SK-MEL-25) of the same compound?
Answer: 1.76%

Question: What about the IC50 (LOX IMVI) of the same compound?
Answer: > 20 µM

Question: And the “SK-MEL-28 (% viability)” value (SK-MEL-28)?
Answer: 1.50%

Question: And the “SK-MEL-5 (% viability)” value (SK-MEL-5)?
Answer: 2.25%

Question: How did the “Growth Percent” value (NCI-H522 (NSCLC)) turn out when “(1S,2R,13R,14S,18S)-7-(3-fluorophenyl)-2,18-dimethyl-8-thia-6-azapentacyclo[11.7.0.02,10.05,9.014,18]icosa-5(9),7,10-trien-17-one [II.12]” was run?
Answer: −36.55%

Question: And the mean growth percent (SF-295; SF-295 (CNS cancer panel), 10 μM)?
Answer: −18.91%

Question: What about the “Growth Percent” value (SF-295; one dose, CNS Cancer, SF-295) of the same compound?
Answer: −18.91%

Question: And the mean growth percent (SF-539; SF-539 (CNS cancer panel), 10 μM)?
Answer: −33.43%

Question: And the “Growth Percent” value (SF-539; one dose, CNS Cancer, SF-539)?
Answer: −33.43%

Question: And the “Growth Percent” value (HCT-15 (Colon Cancer))?
Answer: −38.17%

Question: What about the “Growth Percent” value ([1]; Breast Cancer, BT-549) of the same compound?
Answer: 23.16%

Question: What about the “Growth Percent” value ([1]; Breast Cancer, HS 578T) of the same compound?
Answer: 27.43%

Question: And the “Growth Percent” value ([1]; Breast Cancer, MCF7)?
Answer: 10.76%

Question: And the “Growth Percent” value ([1]; Breast Cancer, MDA-MB-231/ATCC)?
Answer: 62.02%

Question: What about the “Growth Percent” value ([1]; Breast Cancer, MDA-MB-468) of the same compound?
Answer: 29.20%

Question: And the “Growth Percent” value ([1]; Breast Cancer, T-47D)?
Answer: 3.07%

Question: And the “Growth Percent” value ([1]; CNS Cancer, SF-268)?
Answer: 52.39%

Question: And the “Growth Percent” value ([1]; CNS Cancer, SNB-19)?
Answer: 60.01%

Question: What about the “Growth Percent” value ([1]; CNS Cancer, SNB-75) of the same compound?
Answer: 44.61%

Question: What about the “Growth Percent” value ([1]; CNS Cancer, U251) of the same compound?
Answer: 18.77%

Question: What about the “Growth Percent” value ([1]; Colon Cancer, COLO 205) of the same compound?
Answer: 44.55%

Question: What about the “Growth Percent” value ([1]; Colon Cancer, HCC-2998) of the same compound?
Answer: 79.47%

Question: And the “Growth Percent” value ([1]; Colon Cancer, HCT-116)?
Answer: 0.51%

Question: What about the “Growth Percent” value ([1]; Colon Cancer, HT29) of the same compound?
Answer: 5.21%

Question: And the “Growth Percent” value ([1]; Colon Cancer, KM12)?
Answer: 46.48%

Question: And the “Growth Percent” value ([1]; Colon Cancer, SW-620)?
Answer: 3.81%

Question: And the “Growth Percent” value ([1]; Leukemia, CCRF-CEM)?
Answer: 15.82%

Question: What about the “Growth Percent” value ([1]; Leukemia, HL-60(TB)) of the same compound?
Answer: 34.18%

Question: What about the “Growth Percent” value ([1]; Leukemia, K-562) of the same compound?
Answer: 7.01%

Question: And the “Growth Percent” value ([1]; Leukemia, MOLT-4)?
Answer: 5.82%

Question: And the “Growth Percent” value ([1]; Leukemia, RPMI-8226)?
Answer: −2.88%

Question: What about the “Growth Percent” value ([1]; Leukemia, SR) of the same compound?
Answer: 5.11%

Question: What about the “Growth Percent” value ([1]; Melanoma, LOX IMVI) of the same compound?
Answer: 1.34%

Question: What about the “Growth Percent” value ([1]; Melanoma, M14) of the same compound?
Answer: 57.14%

Question: And the “Growth Percent” value ([1]; Melanoma, MALME-3M)?
Answer: 37.62%

Question: What about the “Growth Percent” value ([1]; Melanoma, MDA-MB-435) of the same compound?
Answer: 49.24%

Question: And the “Growth Percent” value ([1]; Melanoma, SK-MEL-2)?
Answer: 32.06%

Question: What about the “Growth Percent” value ([1]; Melanoma, SK-MEL-5) of the same compound?
Answer: 61.51%

Question: And the “Growth Percent” value ([1]; Melanoma, SK-MEL-28)?
Answer: 48.00%

Question: What about the “Growth Percent” value ([1]; Melanoma, UACC-62) of the same compound?
Answer: 34.85%

Question: And the “Growth Percent” value ([1]; Melanoma, UACC-257)?
Answer: 77.45%

Question: And the “Growth Percent” value ([1]; Non-small Cell Lung Cancer, A549/ATCC)?
Answer: 55.01%

Question: What about the “Growth Percent” value ([1]; Non-small Cell Lung Cancer, EKVX) of the same compound?
Answer: 68.33%

Question: What about the “Growth Percent” value ([1]; Non-small Cell Lung Cancer, HOP-62) of the same compound?
Answer: 50.54%

Question: What about the “Growth Percent” value ([1]; Non-small Cell Lung Cancer, HOP-92) of the same compound?
Answer: 74.28%

Question: And the “Growth Percent” value ([1]; Non-small Cell Lung Cancer, NCI-H23)?
Answer: 62.70%

Question: What about the “Growth Percent” value ([1]; Non-small Cell Lung Cancer, NCI-H226) of the same compound?
Answer: 65.84%

Question: And the “Growth Percent” value ([1]; Non-small Cell Lung Cancer, NCI-H322M)?
Answer: 69.34%

Question: And the “Growth Percent” value ([1]; Non-small Cell Lung Cancer, NCI-H460)?
Answer: 53.88%

Question: What about the “Growth Percent” value ([1]; Ovarian Cancer, IGROV1) of the same compound?
Answer: 0.60%

Question: And the “Growth Percent” value ([1]; Ovarian Cancer, NCI/ADR-RES)?
Answer: 68.33%

Question: What about the “Growth Percent” value ([1]; Ovarian Cancer, OVCAR-3) of the same compound?
Answer: 7.89%

Question: And the “Growth Percent” value ([1]; Ovarian Cancer, OVCAR-4)?
Answer: 65.10%

Question: What about the “Growth Percent” value ([1]; Ovarian Cancer, OVCAR-5) of the same compound?
Answer: 87.24%

Question: What about the “Growth Percent” value ([1]; Ovarian Cancer, OVCAR-8) of the same compound?
Answer: 28.53%

Question: What about the “Growth Percent” value ([1]; Ovarian Cancer, SK-OV-3) of the same compound?
Answer: 17.92%

Question: And the “Growth Percent” value ([1]; Prostate Cancer, DU-145)?
Answer: 22.88%

Question: What about the “Growth Percent” value ([1]; Prostate Cancer, PC-3) of the same compound?
Answer: 35.02%

Question: What about the “Growth Percent” value ([1]; Renal Cancer, 786-0) of the same compound?
Answer: −10.07%

Question: What about the “Growth Percent” value ([1]; Renal Cancer, ACHN) of the same compound?
Answer: 11.90%

Question: What about the “Growth Percent” value ([1]; Renal Cancer, CAKI-1) of the same compound?
Answer: 36.88%

Question: What about the “Growth Percent” value ([1]; Renal Cancer, RXF 393) of the same compound?
Answer: −22.47%

Question: And the “Growth Percent” value ([1]; Renal Cancer, SN12C)?
Answer: 42.89%

Question: And the “Growth Percent” value ([1]; Renal Cancer, TK-10)?
Answer: 24.03%

Question: What about the “Growth Percent” value ([1]; Renal Cancer, UO-31) of the same compound?
Answer: 1.08%
